The target in this experiment is T1, σ1-receptor (Cavia porcellus, UniProt Q60492).
T1 construct: Guinea pig brains were homogenized in 10 vols; (w/v) of Tris-HCl 50 mM 0.32 M sucrose, pH 7.4; from tissue; host or cells: guinea pig brain membranes
The experiment in a line: binding assay for the σ1-receptor, [3H]-(+)-pentazocine, brain membranes. The note with it: guinea pig brain membranes; radioligand [3H]-(+)-pentazocine 5.0 nM; 150 min at 37° C.; nonspecific binding with 1 μM haloperidol. As for the experimental part:
Guinea pig brains were homogenized in 10 vols. (w/v) of Tris-HCl 50 mM 0.32 M sucrose, pH 7.4, with a Kinematica Polytron PT 3000 at 15000 r.p.m. for 30 s. The homogenate was centrifuged at 1000 g for 10 min at 4° C. and the supernatants collected and centrifuged again at 48000 g for 15 min at 4° C. The pellet was resuspended in 10 volumes of Tris-HCl buffer (50 mM, pH 7.4), incubated at 37° C. for 30 min, and centrifuged at 48000 g for 20 min at 4° C. Following this, the pellet was re-suspended in fresh Tris-HCl buffer (50 mM, pH 7.4) and stored on ice until use.
The radioligand used was [^3H]-(+)-pentazocine at 5.0 nM and the final volume was 200 μl. The incubation was initiated with the addition of 100 μl of membrane at a final tissue concentration of approximately 5 mg tissue net weight/mL and the incubation time was 150 m. at 37° C. After incubation, the membranes were collected onto pretreated glass fiber filterplate (MultiScreen-FC, Millipore), with polyethylenimine 0.1%. The filters were washed two times with 200 μl of washing buffer (50 mM Tris Cl, pH=7.4) and then 25 μl of Ecoscint H liquid scintillation cocktail were added. […] Nonspecific binding was determined with 1 μM haloperidol.

Experimental findings from US9408842B2, “Substituted pyrano and furanoquinolines, their preparation and use as medicaments” (LABORATORIOS DEL DR. ESTEVE S.A., priority 2012, dated 2016) are described below.

Structures can show the parent of a compound that is named as a salt.

T1 sequence (Q60492 whole entry): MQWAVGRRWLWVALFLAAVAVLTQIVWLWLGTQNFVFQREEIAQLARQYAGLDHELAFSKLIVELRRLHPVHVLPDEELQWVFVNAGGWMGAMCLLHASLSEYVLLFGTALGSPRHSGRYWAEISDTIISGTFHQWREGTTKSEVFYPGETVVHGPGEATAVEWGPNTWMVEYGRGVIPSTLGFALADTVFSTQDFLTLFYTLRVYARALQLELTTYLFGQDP

Molecule `Clc1cccc(Oc2ccc3c(c2)[C@H]2OCCC[C@H]2[C@@H](C2CCCCC2)N3)c1` (racemic) [Example 1, (4aSR*,5RS*,10bSR*)-9-(3-chlorophenoxy)-5-cyclohexyl-3,4,4a,5,6,10b-hexahydro-2H-pyrano[3,2-c]quinoline hydrochloride] returned a Ki of 187 nM. The value for `CC(C)CCOc1ccc2c(c1)[C@H]1OCCC[C@H]1[C@@H](C1CCN(Cc3ccccc3)CC1)N2` (racemic) [Example 6, (4aSR*,5RS*,10bSR*)-5-(1-benzylpiperidin-4-yl)-9-(isopentyloxy)-3,4,4a,5,6,10b-hexahydro-2H-pyrano[3,2-c]quinoline hydrochloride] was 15.1 nM; that for `CCCCOc1ccc2c(c1)[C@H]1OCCC[C@H]1[C@@H](C1CCCCC1)N2` (racemic) [Example 16, (4aSR*,5RS*,10bSR*)-9-butoxy-5-cyclohexyl-3,4,4a,5,6,10b-hexahydro-2H-pyrano[3,2-c]quinoline hydrochloride] was 122 nM; that for `CC(C)CCOc1ccc2c(c1)[C@H]1OCCC[C@H]1[C@@H](C1CCCCC1)N2` (racemic) [Example 27, (4aSR*,5RS*,10bSR*)-5-cyclohexyl-9-(isopentyloxy)-3,4,4a,5,6,10b-hexahydro-2H-pyrano[3,2-c]quinoline hydrochloride] was 51.6 nM. In turn, `CC(C)CCOc1ccc2c(c1)[C@H]1OCC[C@H]1[C@@H](C1CCCCC1)N2` (racemic) [Example 32, (3aSR*,4RS*,9bSR*)-4-cyclohexyl-8-(isopentyloxy)-2,3,3a,4,5,9b-hexahydrofuro[3,2-c]quinoline hydrochloride] displayed a Ki of 108 nM. Then `c1cc2c(cc1OCCN1CCOCC1)[C@H]1OCC[C@H]1[C@@H](C1CCCCC1)N2` (racemic) [Example 41, (3aSR*,4RS*,9bSR*)-4-cyclohexyl-8-(2-morpholinoethoxy)-2,3,3a,4,5,9b-hexahydrofuro[3,2-c]quinoline hydrochloride], with 131 nM; and `Clc1ccc(Oc2ccc3c(c2)[C@H]2OCCC[C@H]2[C@@H](C2CCCCC2)N3)cc1` (racemic) [Example 55, (4aSR*,5RS*,10bSR*)-9-(4-chlorophenoxy)-5-cyclohexyl-3,4,4a,5,6,10b-hexahydro-2H-pyrano[3,2-c]quinoline hydrochloride], with 194 nM. Then `CCCCCc1ccc2c(c1)[C@H]1OCCC[C@H]1[C@@H](C1CCCCC1)N2` (racemic) [Example 59, (4aSR*,5RS*,10bSR*)-5-cyclohexyl-9-pentyl-3,4,4a,5,6,10b-hexahydro-2H-pyrano[3,2-c]quinoline], with 132 nM; and `CCCCCc1ccc2c(c1)[C@H]1OCCC[C@H]1[C@@H](C1CCCCC1)N2` (racemic) [Example 60, (4aSR*,5RS*,10bSR*)-5-cyclohexyl-9-pentyl-3,4,4a,5,6,10b-hexhaydro-2H-pyrano[3,2-c]quinoline hydrochloride], with 42.6 nM; and `CCCCCc1ccc2c(c1)[C@H]1OCCC[C@H]1[C@@H](C1CCOCC1)N2` (racemic) [Example 63, (4aSR*,5RS*,10bSR*)-9-pentyl-5-(tetrahydro-2H-pyran-4-yl)-3,4,4a,5,6,10b-hexahydro-2H-pyrano[3,2-c]quinoline hydrochloride], with 61.9 nM. The value for `c1cc2c(cc1OCCN1CCOCC1)[C@H]1OCCC[C@H]1[C@@H](C1CCCCC1)N2` (racemic) [Example 67, (4aSR*,5RS*,10bSR*)-5-cyclohexyl-9-(2-morpholinoethoxy)-3,4,4a,5,6,10b-hexahydro-2H-pyrano[3,2-c]quinoline] was 311 nM; that for `c1ccc(Oc2ccc3c(c2)[C@H]2OCCC[C@H]2[C@@H](C2CCSCC2)N3)cc1` (racemic) [Example 71, (4aSR*,5RS*,10bSR*)-9-phenoxy-5-(tetrahydro-2H-thiopyran-4-yl)-3,4,4a,5,6,10b-hexahydro-2H-pyrano[3,2-c]quinoline hydrochloride] was 349 nM; that for `CCCCCc1ccc2c(c1)[C@H]1OCC[C@H]1[C@@H](C1CCCCC1)N2` (racemic) [Example 84, (3aSR*,4RS*,9bSR*)-4-cyclohexyl-8-pentyl-2,3,3a,4,5,9b-hexahydrofuro[3,2-c]quinoline hydrochloride] was 244 nM.

`CCCCCc1ccc2c(c1)[C@H]1OCC[C@H]1[C@@H](C1CCOCC1)N2` (racemic) [Example 85, (3aSR*,4RS*,9bSR*)-8-pentyl-4-(tetrahydro-2H-pyran-4-yl)-2,3,3a,4,5,9b-hexahydrofuro[3,2-c]quinoline hydrochloride] had a Ki of 155 nM. Then `Clc1ccc(Oc2ccc3c(c2)[C@H]2OCC[C@H]2[C@@H](C2CCCCC2)N3)cc1` (racemic) [Example 86, (3aSR*,4RS*,9bSR*)-8-(4-chlorophenoxy)-4-cyclohexyl-2,3,3a,4,5,9b-hexahydrofuro[3,2-c]quinoline], with 78.2 nM; and `Clc1ccc(Oc2ccc3c(c2)[C@H]2OCC[C@H]2[C@@H](C2CCCCC2)N3)cc1` (racemic) [Example 87, (3aSR*,4RS*,9bSR*)-8-(4-chlorophenoxy)-4-cyclohexyl-2,3,3a,4,5,9b-hexahydrofuro[3,2-c]quinoline hydrochloride], with 302 nM. The value for `Fc1ccc(COc2ccc3c(c2)[C@H]2OCC[C@H]2[C@@H](C2CCCCC2)N3)cc1` (racemic) [Example 91, (3aSR*,4RS*,9bSR*)-4-cyclohexyl-8-(4-fluorobenzyloxy)-2,3,3a,4,5,9b-hexahydrofuro[3,2-c]quinoline hydrochloride] was 267 nM; that for `Clc1ccc(Oc2ccc3c(c2)[C@H]2OCC[C@H]2[C@@H](C2CCCCC2)N3)cc1Cl` (racemic) [Example 92, (3aSR*,4RS*,9bSR*)-4-cyclohexyl-8-(3,4-dichlorophenoxy)-2,3,3a,4,5,9b-hexahydrofuro[3,2-c]quinoline hydrochloride] was 110 nM.

In the case of `Clc1ccc(Oc2ccc3c(c2)[C@H]2OCCC[C@H]2[C@@H](C2CCCCC2)N3)cc1Cl` (racemic) [Example 93, (4aSR*,5RS*,10bSR*)-5-cyclohexyl-9-(3,4-dichlorophenoxy)-3,4,4a,5,6,10b-hexahydro-2H-pyrano[3,2-c]quinoline hydrochloride], the affinity corresponds to a Ki of 79.3 nM.

As to `CCCCCc1ccc2c(c1)[C@H]1OCC[C@H]1[C@@H](C1CCSCC1)N2` (racemic) [Example 95, (3aSR*,4RS*,9bSR*)-8-pentyl-4-tetrahydro-2H-thiopyran-4-yl)-2,3,3a,4,5,9b-hexahydrofuro[3,2-c]quinoline hydrochloride], affinity was put at a Ki of 89.1 nM. Then `CC(C)CCOc1ccc2c(c1)[C@H]1OCCC[C@H]1[C@@H](C1CCNCC1)N2` (racemic) [Example 100, (4aSR*,5RS*,10bSR*)-9-(isopentyloxy)-5-(piperidin-4-yl)-3,4,4a,5,6,10b-hexahydro-2H-pyrano[3,2-c]quinoline hydrochloride], with 536 nM; and `CC(C)CCOc1ccc2c(c1)[C@H]1OCCC[C@H]1[C@@H](C1CCOCC1)N2` (racemic) [Example 101, (4aSR*,5RS*,10bSR*)-9-(isopentyloxy)-5-(tetrahydro-2H-pyran-4-yl)-3,4,4a,5,6,10b-hexahydro-2H-pyrano[3,2-c]quinoline hydrochloride], with 84 nM. The value for `c1cc2c(cc1N1CCOCC1)[C@H]1OCC[C@H]1[C@@H](C1CCCCC1)N2` (racemic) [Example 103, (3aSR*,4RS*,9bSR*)-4-cyclohexyl-8-morpholino-2,3,3a,4,5,9b-hexahydrofuro[3,2-c]quinoline hydrochloride] was 337 nM; that for `CC(C)CCOc1ccc2c(c1)[C@H]1OCCC[C@H]1[C@@H](C1CCCC1)N2` (racemic) [Example 105, (4aSR*,5RS*,10bSR*)-5-cyclopentyl-9-(isopentyloxy)-3,4,4a,5,6,10b-hexahydro-2H-pyrano[3,2-c]quinoline hydrochloride] was 124 nM; that for `NCCCOc1ccc2c(c1)[C@H]1OCC[C@H]1[C@@H](C1CCCCC1)N2` (racemic) [Example 106, 3-((3aSR*,4RS*,9bSR*)-4-cyclohexyl-2,3,3a,4,5,9b-hexahydrofuro[3,2-c]quinolin-8-yloxy)propan-1-amine hydrochloride] was 25.3 nM. As to `COc1ccc2c(c1)[C@H]1OCCC[C@H]1[C@@H](C1CCN(CCc3ccccc3)CC1)N2` (racemic) [Example 108, (4aSR*,5RS*,10bSR*)-9-methoxy-5-(1-phenethylpiperidin-4-yl)-3,4,4a,5,6,10b-hexahydro-2H-pyrano[3,2-c]quinoline hydrochloride], the Ki was found to be 279 nM. Then `COc1ccc2c(c1)[C@H]1OCCC[C@H]1[C@@H](C1CCN(Cc3ccc(Cl)cc3)CC1)N2` (racemic) [Example 109, (4aSR*,5RS*,10bSR*)-5-(1-(4-chlorobenzyl)piperidin-4-yl)-9-methoxy-3,4,4a,5,6,10b-hexahydro-2H-pyrano[3,2-c]quinoline hydrochloride], with 27.2 nM. The value for `CCN1CCC([C@H]2Nc3ccc(OCCC(C)C)cc3[C@H]3OCCC[C@H]32)CC1` (racemic) [Example 110, (4aSR*,5RS*,10bSR*)-5-(1-ethylpiperidin-4-yl)-9-(isopentyloxy)-3,4,4a,5,6,10b-hexahydro-2H-pyrano[3,2-c]quinoline hydrochloride] was 317 nM.

A word on the Ki: it is the dissociation constant of the complex between target and ligand, obtained from inhibition or displacement. Higher therefore signals lower affinity.
